In brackets after ≈: the same amount, converted by molar mass. Read-outs that look alike come from different tables or passages of the source. Residues, ends and D or L forms follow the SMILES beside them. *: point of attachment. Hexanoyl = CCCCCC(=O)*
Experiments:
mouse erythrocytes = conditions: AMPs 100 μM, 1 hour 37 °C, pos. 10% Triton X-100, neg. PBS, 3 x 2 replicates
From the text: (§1) Cytotoxicity studies are important during characterization of novel compounds or materials intended for interactions within human biological systems in vivo. Evaluation of the extent to which the compound induces disruption of the membrane of erythrocytes (red blood cells), thereby causing release of cellular content, often constitutes an initial step in such cytotoxicity assessments. The assay used in this context is generally referred to as the hemolysis assay, which has the advantages of being cheap, accessible, and simple to perform. Blood is drawn from a human or an animal, and next, the washed erythrocytes are incubated together with the compound or material under investigation. If the compound causes hemolysis, hemoglobin (along with other cellular constituents) will be released into the supernatant.
(§2) Blood from mice, rats, and rabbits was provided by the Department of Comparative Medicine at Oslo University Hospital (Marianne Aannestad). For mice and rats, the blood was collected from the heart by using 25 G and 21 G needles, respectively, whereas for rabbits, the blood was collected by free bleed through the ear using a yellow neoflon (24 G). All animals were wild type and anesthetized prior to the procedure.
(§3) All blood was collected in Lithium Heparin tubes 4 mL (Greiner Bio-One, Kremsmünster, Austria) or Coagulation sodium citrate 3.2% tubes 3 mL (Greiner Bio-One).
(§4) AMP 2 contained an N-terminal hexanoic acid moiety, whereas all peptides contained amidated C-termini. These three peptides were synthesized by Genscript Inc. (Piscataway, NJ, USA), and stock solutions of 1 mg/mL were made from the purchased powders. […] All peptides were diluted to yield a 100 μM final concentration in the hemolysis assays.
(§5) Triton X-100 (T8787) and Tween-20 (P2287) detergents were purchased from Sigma Aldrich and diluted to obtain 10% stock solutions by weighing (w/v). A sodium Dodecyl Sulfate (SDS) 10% solution was purchased from Invitrogen (Waltham, MA, USA, 15553027). All subsequent dilutions annotated in figures were made from these stocks.
(§6) As soon as possible after phlebotomy, the blood samples were centrifuged at 1700× g for 5 min. The supernatant was removed by aspiration and 2 mL of PBS pH 7 was added. The washing step was repeated three times or until the supernatant was clear. After final aspiration, the remaining pellet was diluted 1:100 in PBS pH 7 to obtain a 1% erythrocyte suspension (or 1:100, 1:50, and 1:20 for assays testing the effect of erythrocyte concentration). For experiments using whole blood, the washing steps were not performed, but downstream experimentation was identical. For experiments performed with 96-well plates, 50 μL of test compound, water, or detergent were mixed with 50 μL of blood sample (1% erythrocyte suspension or whole blood). For experiments using larger volumes, 250 μL of test compound, water, or detergent were mixed with 250 μL blood sample in an Eppendorf tube. Samples were subsequently incubated at 37 °C for 60 min (or 15, 30, 60, 90, or 120 min for assays evaluating the effect of incubation time). After incubation, the plates/tubes were centrifuged at 1700× g for 5 min, and then 50 μL of the supernatants were transferred to transparent, flat-bottom 96-well plates (Anicrin, A013418). Finally, absorption was measured at 405, 530, and 570 nm in a Victor Nivo Multimode microplate reader (Perkin Elmer, Waltham, MA, USA).

rat erythrocytes = conditions: AMPs 100 μM, 1 hour 37 °C, pos. 10% Triton X-100, neg. PBS, 3 x 2 replicates
From the text: as §1, §2, §3, §4, §5, §6

rabbit erythrocytes = conditions: AMPs 100 μM, 1 hour 37 °C, pos. 10% Triton X-100, neg. PBS, 3 x 2 replicates
From the text: as §1, §2, §3, §4, §5, §6

rabbit whole blood = conditions: for Hemolysis ratio: rabbit whole blood, AMPs 100 μM, 1 hour 37 °C, 3 x 2 replicates
From the text: as §1, §2, §3, §4, §5, §6

[1] = test system: washed human erythrocytes; assay: Hemolysis assay, washed human erythrocytes
human whole blood = conditions: for Calculated hemolysis ratio: human whole blood, peptides 100 μM, 60 min 37 °C, neg. PBS, 3 x 2 replicates
E. coli = conditions: E. coli
[2] = test system: washed human erythrocytes; assay: Flow cytometry of treated erythrocytes with live/dead amine-reactive stain; format: cell-based; conditions: washed human erythrocytes treated 60 minutes, AMPs 100 μM, amine-reactive dye 488, flow cytometry 533/30 nm
Protocol: Briefly, a 1% washed erythrocyte solution was diluted to ~10^5 cells/mL and 0.4% Trypan blue (1:1 ratio) was added before 10 μL of the stained cell suspension was added to the Countess cell counting chamber slide. After a 30 s incubation, the slide was inserted into the instrument for automatic cell counting.
The Countess II automated cell counter (see above) was used to adjust the negative control sample to ~10^5 cells/mL and to subsequently dilute all samples by the same factor. Then, 0.5 μL of live/dead amine-reactive dye 488 (Fisher Scientific, Waltham, MA, USA) was added to 0.5 mL cell suspension and incubated for 30 min protected from light. Subsequently, the samples were washed twice with PBS pH 7 containing 1% bovine serum albumin (BSA), and finally resuspended in PBS pH 7 with 1% BSA. Cells were next counted, and the fluorescence measured using the 533/30 nm filter in an Accuri C6 flow cytometer (BD Biosciences, Franklin Lakes, NJ, USA).

## CCCCCC(=O)N[C@@H](CCSC)C(=O)N[C@@H](CCCCN)C(=O)N[C@@H](CCCNC(=N)N)C(=O)N[C@@H](CCCCN)C(=O)N[C@@H](CCCCN)C(=O)N[C@@H](CCCCN)C(=O)N[C@H](C(=O)N[C@@H](CC(C)C)C(=O)N[C@H](C(=O)N[C@@H](CCCCN)C(=O)N[C@@H](CCCCN)C(=O)N[C@H](C(=O)N[C@@H](CC(C)C)C(=O)N[C@@H](CCCCN)C(=O)N[C@@H](CC(C)C)C(=O)N[C@@H](CCCCN)C(=O)N[C@@H](CO)C(=O)N[C@@H](CO)C(=O)N[C@@H](C)C(=O)N[C@@H](Cc1ccc(O)cc1)C(N)=O)C(C)C)[C@@H](C)CC)[C@@H](C)CC [AMP 2] (Hexanoyl-MKRKKKILIKKVLKLKSSAY-NH2)
Mouse erythrocytes; Table S4: washed mouse erythrocytes, OD 405 nm
  Hemolysis ratio: 0.1 +/- 2%
Mouse erythrocytes; washed mouse erythrocytes, OD 530 nm
  Hemolysis ratio: -11.8 +/- 8%
Mouse erythrocytes; washed mouse erythrocytes, OD 570 nm
  Hemolysis ratio: -2.7 +/- 1.9%
Rat erythrocytes; Table S4: washed rat erythrocytes, OD 405 nm
  Hemolysis ratio: 5.2 +/- 1.9%
Rat erythrocytes; washed rat erythrocytes, OD 530 nm
  Hemolysis ratio: 2.6 +/- 5.7%
Rat erythrocytes; washed rat erythrocytes, OD 570 nm
  Hemolysis ratio: 3.3 +/- 3%
Rabbit erythrocytes; Table S4: washed rabbit erythrocytes, OD 405 nm
  Hemolysis ratio: 4.6 +/- 0.7%
Rabbit erythrocytes; washed rabbit erythrocytes, OD 530 nm
  Hemolysis ratio: 1.7 +/- 3.6%
Rabbit erythrocytes; washed rabbit erythrocytes, OD 570 nm
  Hemolysis ratio: 2.2 +/- 1.4%
Rabbit whole blood; cf. Tables S3 and S4, 100 μM
  Fold decrease of hemolytic effect in rabbit whole blood vs washed rabbit erythrocytes: 23 fold
Rabbit whole blood; OD 405 nm, neg. PBS
  Hemolysis ratio: 0.6 +/- 3.2%
Rabbit whole blood; OD 530 nm, pos. 10% SDS, neg. PBS
  Hemolysis ratio: 0.2 +/- 0.6%
Rabbit whole blood; OD 570 nm, pos. 10% Triton X-100, neg. PBS
  Hemolysis ratio: 0.2 +/- 0.5%
[1]; 1% washed human erythrocytes, OD 530 nm, peptides 100 μM, 60 min 37 °C, pos. 10% Triton X-100, neg. PBS, 3 x 2 replicates
  Calculated hemolysis ratio: 5.2 ± 3%
[1]; 1% washed human erythrocytes, OD 570 nm, peptides 100 μM, 60 min 37 °C, pos. 10% Triton X-100, neg. PBS, 3 x 2 replicates
  Calculated hemolysis ratio: 4.8 ± 6.6%
[1]; 2% pooled human erythrocytes, AMPs 100 µM, 60 min 37 °C, 405 nm, pos. 10% Triton X-100, neg. PBS, 3 x 2 replicates
  Calculated Hemolysis (%): 5.6 ± 0.8%
[1]; 5% pooled human erythrocytes, AMPs 100 µM, 60 min 37 °C, 405 nm, pos. 10% Triton X-100, neg. PBS, 3 x 2 replicates
  Calculated Hemolysis (%): 5.0 ± 3.3%
[1]; Table 1: 1% human erythrocytes, 100 µM, 60 min 37 °C, OD 405 nm, pos. 10% Triton X-100, neg. PBS, mean ± SD, 3 experimental x 2 technical replicates
  Calculated hemolysis ratio: 8.5 ± 1.4%
[1]; Table 2: pooled blood from all 10 individuals, 1% erythrocytes, AMPs 100 µM, 60 min 37 °C, 405 nm, pos. 10% Triton X, neg. PBS, 3 x 2 replicates
  Calculated hemolysis ratio: 12.4 ± 3.1%
[1]; Table 3: 1% pooled human erythrocytes, AMPs 100 µM, 60 min 37 °C, 405 nm, pos. 10% Triton X-100, neg. PBS, 3 x 2 replicates
  Calculated Hemolysis (%): 12.4 ± 3.1%
[1]; Table 4: incubation 60 min, 37 °C, 1% human erythrocytes, AMPs 100 µM, 405 nm, pos. 10% Triton X-100, neg. PBS, 3 biological x 2 technical replicates
  Calculated hemolysis ratio: 7.8 ± 1.3%
[1]; Table 6: 1% washed human erythrocytes, OD 405 nm, peptides 100 μM, 60 min 37 °C, pos. 10% Triton X-100, neg. PBS, 3 x 2 replicates
  Calculated hemolysis ratio: 8.2 ± 1.4%
[1]; human individual # 1, 1% erythrocytes, AMPs 100 µM, 60 min 37 °C, 405 nm, pos. 10% Triton X, neg. PBS, 3 x 2 replicates
  Calculated hemolysis ratio: 8.2 ± 1.3%
[1]; human individual # 2, 1% erythrocytes, AMPs 100 µM, 60 min 37 °C, 405 nm, pos. 10% Triton X, neg. PBS, 3 x 2 replicates
  Calculated hemolysis ratio: 10 ± 0.7%
[1]; human individual # 3, 1% erythrocytes, AMPs 100 µM, 60 min 37 °C, 405 nm, pos. 10% Triton X, neg. PBS, 3 x 2 replicates
  Calculated hemolysis ratio: 9.8 ± 0.8%
[1]; human individual # 4, 1% erythrocytes, AMPs 100 µM, 60 min 37 °C, 405 nm, pos. 10% Triton X, neg. PBS, 3 x 2 replicates
  Calculated hemolysis ratio: 10.4 ± 0.9%
[1]; human individual # 5, 1% erythrocytes, AMPs 100 µM, 60 min 37 °C, 405 nm, pos. 10% Triton X, neg. PBS, 3 x 2 replicates
  Calculated hemolysis ratio: 11 ± 1%
[1]; human individual # 6, 1% erythrocytes, AMPs 100 µM, 60 min 37 °C, 405 nm, pos. 10% Triton X, neg. PBS, 3 x 2 replicates
  Calculated hemolysis ratio: 6.4 ± 0.7%
[1]; human individual # 7, 1% erythrocytes, AMPs 100 µM, 60 min 37 °C, 405 nm, pos. 10% Triton X, neg. PBS, 3 x 2 replicates
  Calculated hemolysis ratio: 8.9 ± 0.8%
[1]; human individual # 8, 1% erythrocytes, AMPs 100 µM, 60 min 37 °C, 405 nm, pos. 10% Triton X, neg. PBS, 3 x 2 replicates
  Calculated hemolysis ratio: 9.1 ± 1.1%
[1]; human individual # 9, 1% erythrocytes, AMPs 100 µM, 60 min 37 °C, 405 nm, pos. 10% Triton X, neg. PBS, 3 x 2 replicates
  Calculated hemolysis ratio: 9.6 ± 1%
[1]; human individual # 10, 1% erythrocytes, AMPs 100 µM, 60 min 37 °C, 405 nm, pos. 10% Triton X, neg. PBS, 3 x 2 replicates
  Calculated hemolysis ratio: 9.8 ± 0.7%
[1]; incubated in polypropylene tubes, 1% washed human erythrocytes, peptides 100 μM, 60 min 37 °C, 405 nm, pos. 10% Triton X-100, neg. PBS, 3 x 2 replicates
  Calculated hemolysis ratio: 8.2 ± 2.6%
[1]; incubated in polystyrene tubes, 1% washed human erythrocytes, peptides 100 μM, 60 min 37 °C, 405 nm, pos. 10% Triton X-100, neg. PBS, 3 x 2 replicates
  Calculated hemolysis ratio: 9.7 ± 3.4%
[1]; incubation 15 min, 37 °C, 1% human erythrocytes, AMPs 100 µM, 405 nm, pos. 10% Triton X-100, neg. PBS, 3 biological x 2 technical replicates
  Calculated hemolysis ratio: 7.8 ± 1.1%
[1]; incubation 30 min, 37 °C, 1% human erythrocytes, AMPs 100 µM, 405 nm, pos. 10% Triton X-100, neg. PBS, 3 biological x 2 technical replicates
  Calculated hemolysis ratio: 7.4 ± 1.2%
[1]; incubation 90 min, 37 °C, 1% human erythrocytes, AMPs 100 µM, 405 nm, pos. 10% Triton X-100, neg. PBS, 3 biological x 2 technical replicates
  Calculated hemolysis ratio: 8 ± 0.8%
[1]; incubation 120 min, 37 °C, 1% human erythrocytes, AMPs 100 µM, 405 nm, pos. 10% Triton X-100, neg. PBS, 3 biological x 2 technical replicates
  Calculated hemolysis ratio: 8.6 ± 1.4%
[1]; reason for choice of the AMPs
  Observed hemolytic properties (qualitative): low
[1]; total incubation volume 100 μL, 1% washed human erythrocytes, peptides 100 μM, 60 min 37 °C, 405 nm, pos. 10% Triton X-100, neg. PBS, 3 x 2 replicates
  Calculated hemolysis ratio: 9.7 ± 3.4%
[1]; total incubation volume 500 μL, 1% washed human erythrocytes, peptides 100 μM, 60 min 37 °C, 405 nm, pos. 10% Triton X-100, neg. PBS, 3 x 2 replicates
  Calculated hemolysis ratio: 8.8 ± 3.9%
Human whole blood; OD 405 nm (signal saturated), pos. 10% SDS
  Calculated hemolysis ratio: 0.4 ± 0.2%
Human whole blood; OD 530 nm, pos. 10% SDS
  Calculated hemolysis ratio: 0.2%
Human whole blood; OD 570 nm, pos. 10% Triton X-100 (table title; text says 10% SDS)
  Calculated hemolysis ratio: −0.1%
Human whole blood; whole blood HR with 10% SDS as positive control (Table 5) vs washed erythrocytes (Table 6), 100 μM
  Fold reduction in HR in human whole blood in comparison with washed erythrocytes measured at 405 nm: > 41 fold
E. coli
  Minimum inhibitory concentration (E. coli): 4 µM (≈ 10 µg/mL)
[2]
  Fluorescence intensity per cell of remaining intact cells (live/dead stain): low fluorescence

Source: PMC9917735, “Optimization of the Hemolysis Assay for the Assessment of Cytotoxicity” (International Journal of Molecular Sciences, 2023)
